The text below walks through data of patent US20250228865A1, “COMPOUNDS FOR ENHANCING READ THROUGH OF GENES CONTAINING PREMATURE TERMINATION CODONS AND METHODS FOR MAKING AND USING THE SAME” (Sanofi US Services Inc., priority 2022, published 2025).

The test system of assay [1] is recombinant human CFTR carrying the premature stop codon (PTC) mutation R1162X. Briefly: CFTR-PTC mutant translation readthrough, Nanoluc tagged CFTR luminescence (R1162X cell line). It is filed as cell-based. As to conditions: for CFTR R1162X ACTIVITY Fold 10 μM G-418: fold over 10 μM G-418, in combination with G418; for EC50: in combination with G418, 16HBE cells, read-out: CFTR R1162X ACTIVITY EC50. As to the method:
(§1) 16HBE human bronchial epithelial cells (stably over-expressing recombinant human CFTR carrying the premature stop codon (PTC) mutation G542X or R1162X along with a Nanoluc tag incorporated into the CFTR channel within extracellular loop 4 in G542X cell line or C-terminus end in the R1162X cell line were seeded at 0.01×10^6 cells/well and grown in Minimal Essential Medium (MEM) as monolayers in 384 well plates and incubated at 37° C. with 5% CO2. Media was changed every other day until day of experiment. Agents to be evaluated were made up in separate 384 well, polypropylene plates at a 2X the final desired test concentration. Test agent 10-point concentration response curves were constructed using the Labcyte Echo 555 acoustic dispenser. Test agents were typically tested at a max final test concentrations of 50 μM with sequential 2-fold lower concentrations below this in the absence or presence of a fixed 10 μM concentration of the aminoglycoside G418 made up in MEM growth media (reduced Serum Media+HEPES Buffer+2.4 g/L Sodium Bicarbonate+L-Glutamine containing CFTR corrector VX-809 (3 μM)). Treatment with 10 μM G418 alone produced approximately 10% of the response observed with a maximally effective concentration of G418 (typically 125-250 μM). Test agent effects in presence of 10 μM G418 were compared to control wells on the plate containing a maximally effective concentration of G418 (typically 125-250 μM) made up in the same media. 25 ul of test agents/control solutions were transferred from the compound plate to the cell plate, which already contained 25 ul/well of cell plating media, using an Integra Viaflo 384. Cell plates were incubated with the compounds for 48 hours, at which time they were processed using Nanoluc luminescence Kit (Promega Nano-Glo Live Cell Assay System) to measure CFTR-PTC mutant translation readthrough. Luminescence was measured as follows. Cell plates were removed from the incubator and allowed to equilibrate to room temperature for 20 minutes. Media was removed from all wells and the plates were blotted to remove excess remaining volume. Nano-Glo Live Cell Substrate was diluted 1:20 in the appropriate amount of Nano-Glo LCS Dilution Buffer to accommodate the number of cell plates being tested. The substrate/dilution buffer mix was then diluted 1:3 with MEM media to make the appropriate volume for the number of plates being tested. The substrate/dilution buffer/OptiMEM mix was added across the Nanoluc testing cell plates and the plates were read for luminescence signal immediately. Test agent effects on CFTR translation readthrough was determined by normalizing any observed increase in luminescence induced by 48 hours pretreatment with test compound to the magnitude of luminescence increase produced by pretreatment with a maximally effective concentration of the reference readthrough enhancing agent G418 (125-250 μM).

The test system of assay [2] is recombinant human CFTR carrying the premature stop codon (PTC) mutation G542X. Briefly: CFTR-PTC mutant translation readthrough, Nanoluc tagged CFTR luminescence (G542X cell line). It is filed as cell-based. As to conditions: in combination with G418, G542X cell line; for CFTR G542X ACTIVITY Fold 10 μM G-418: fold over 10 μM G-418; for EC50: 16HBE cells. The procedure:
as §1

Take `Cc1cccc(C(F)(F)F)c1COc1cnc(-n2cnc(CO)c2)nc1`: in assay [1], the “CFTR R1162X ACTIVITY Fold 10 μM G-418” value is reported as “A′ (A′ = ≥10X)” and the EC50 – broadly, the concentration that produces a half-maximal response – is < 1000 nM. Further, in assay [2], the “CFTR G542X ACTIVITY Fold 10 μM G-418” value is on record as “A′ (A′ = ≥10X)” and the 50% effective concentration (EC50) is < 1000 nM.
For the molecule `Cc1cccc(C(F)(F)F)c1COc1ccc(-n2cnc(CO)c2)nc1`, in assay [1], the “CFTR R1162X ACTIVITY Fold 10 μM G-418” value is given as “A′ (A′ = ≥10X)” and the 50% effective concentration (EC50) is 1000 to 10000 nM. In assay [2], the “CFTR G542X ACTIVITY Fold 10 μM G-418” value is on record as “A′ (A′ = ≥10X)” and the concentration giving a half-maximal response (EC50) was < 1000 nM.
As to `Cc1cccc(C(F)(F)F)c1COc1ccc(-n2cnc(Cn3cnc(CO)c3)c2)nc1`, in assay [1], the “CFTR R1162X ACTIVITY Fold 10 μM G-418” value is given as “A′ (A′ = ≥10X)” and the EC50 was 1000 to 10000 nM. Further, in assay [2], the “CFTR G542X ACTIVITY Fold 10 μM G-418” value was “A′ (A′ = ≥10X)” and the concentration giving a half-maximal response (EC50) lay within 1000 to 10000 nM.
Turning to `Cc1cccc(C(F)(F)F)c1COc1ccc(N2CCOC(CO)C2)cc1` (stereo not drawn), in assay [1], the “CFTR R1162X ACTIVITY Fold 10 μM G-418” value was “A′ (A′ = ≥10X)” and the 50% effective concentration (EC50) is 1000 to 10000 nM. Also, in assay [2], the “CFTR G542X ACTIVITY Fold 10 μM G-418” value is listed as “A′ (A′ = ≥10X)” and the concentration for a half-maximal effect (EC50) is < 1000 nM.
`OCC1CN(c2ncc(OCc3c(Cl)cccc3C(F)(F)F)cn2)CCO1` (stereo not drawn): in assay [1], the “CFTR R1162X ACTIVITY Fold 10 μM G-418” value is listed as “A′ (A′ = ≥10X)” and the EC50 was < 1000 nM. In addition, in assay [2], the “CFTR G542X ACTIVITY Fold 10 μM G-418” value is listed as “A′ (A′ = ≥10X)” and the EC50 was < 1000 nM.
Take `OCC1CN(c2ccc(OCc3c(Cl)cccc3C(F)(F)F)cn2)CCO1` (stereo not drawn): in assay [1], the “CFTR R1162X ACTIVITY Fold 10 μM G-418” value is “A′ (A′ = ≥10X)” and the EC50 is < 1000 nM. In assay [2], the “CFTR G542X ACTIVITY Fold 10 μM G-418” value is “A′ (A′ = ≥10X)” and the concentration for a half-maximal effect (EC50) is < 1000 nM.
Take `OCC1CN(c2ncc(OCc3c(Cl)cccc3C3CC3)cn2)CCO1` (stereo not drawn): in assay [1], the “CFTR R1162X ACTIVITY Fold 10 μM G-418” value was “A′ (A′ = ≥10X)” and the EC50 was < 1000 nM. Also, in assay [2], the “CFTR G542X ACTIVITY Fold 10 μM G-418” value is recorded as “A′ (A′ = ≥10X)” and the EC50 is < 1000 nM.
Consider `OCC1CN(c2ncc(OCc3c(F)cccc3C(F)(F)F)cn2)CCO1` (stereo not drawn), for which, in assay [1], the “CFTR R1162X ACTIVITY Fold 10 μM G-418” value is on record as “A′ (A′ = ≥10X)” and the EC50 is 1000 to 10000 nM. Also, in assay [2], the “CFTR G542X ACTIVITY Fold 10 μM G-418” value is listed as “A′ (A′ = ≥10X)” and the EC50 is 1000 to 10000 nM.
On to `Cc1cccc(C(F)(F)F)c1COc1ccc(N2CCOC(CO)C2)nc1` (stereo not drawn), for which, in assay [1], the “CFTR R1162X ACTIVITY Fold 10 μM G-418” value was “A′ (A′ = ≥10X)” and the EC50 lay in the range of 1000 to 10000 nM. In assay [2], the “CFTR G542X ACTIVITY Fold 10 μM G-418” value is “A′ (A′ = ≥10X)” and the half-maximal effective concentration (EC50) lay within 1000 to 10000 nM.
`Cc1cccc(C(F)(F)F)c1COc1cnc(N2CCOC(CO)C2)nc1` (stereo not drawn): in assay [1], the “CFTR R1162X ACTIVITY Fold 10 μM G-418” value was “A′ (A′ = ≥10X)” and the EC50 is < 1000 nM. Besides, in assay [2], the “CFTR G542X ACTIVITY Fold 10 μM G-418” value is on record as “A′ (A′ = ≥10X)” and the EC50 is < 1000 nM.
Consider `CCc1cccc(C(F)(F)F)c1COc1ccc(N2C[C@@H](CO)NC2=O)nc1`, for which, in assay [1], the “CFTR R1162X ACTIVITY Fold 10 μM G-418” value was “C′ (C′ = <5X)” and the EC50 is < 1000 nM. Further, in assay [2], the “CFTR G542X ACTIVITY Fold 10 μM G-418” value is “C′ (C′ = <5X)” and the concentration for a half-maximal effect (EC50) was < 1000 nM.
For `Cc1cccc(C(F)(F)F)c1COc1ccc2nc(CO)cn2c1`, in assay [1], the “CFTR R1162X ACTIVITY Fold 10 μM G-418” value is reported as “A′ (A′ = ≥10X)” and the concentration giving a half-maximal response (EC50) was > 10000 nM. For the same molecule, in assay [2], the “CFTR G542X ACTIVITY Fold 10 μM G-418” value is on record as “A′ (A′ = ≥10X)” and the EC50 was > 10000 nM.
Take `Cc1cccc(C(F)(F)F)c1COc1cnc(N2CCO[C@@H](CO)C2)nc1`: in assay [1], the “CFTR R1162X ACTIVITY Fold 10 μM G-418” value is reported as “A′ (A′ = ≥10X)” and the half-maximal effective concentration (EC50) was < 1000 nM. For the same molecule, in assay [2], the “CFTR G542X ACTIVITY Fold 10 μM G-418” value is listed as “A′ (A′ = ≥10X)” and the concentration for a half-maximal effect (EC50) is < 1000 nM.
As for `OC[C@@H]1CN(c2ncc(OCc3c(Cl)cccc3C(F)(F)F)cn2)CCO1`, in assay [1], the “CFTR R1162X ACTIVITY Fold 10 μM G-418” value is on record as “A′ (A′ = ≥10X)” and the EC50 is < 1000 nM. Besides, in assay [2], the “CFTR G542X ACTIVITY Fold 10 μM G-418” value is on record as “A′ (A′ = ≥10X)” and the EC50 is < 1000 nM.
`Cc1cccc(C(F)(F)F)c1COc1cnc(N2CCO[C@H](CO)C2)nc1`: in assay [1], the “CFTR R1162X ACTIVITY Fold 10 μM G-418” value is reported as “A′ (A′ = ≥10X)” and the concentration for a half-maximal effect (EC50) was < 1000 nM. In assay [2], the “CFTR G542X ACTIVITY Fold 10 μM G-418” value is given as “A′ (A′ = ≥10X)” and the EC50 was < 1000 nM.
